In ChEMBL document CHEMBL3627710, “Mitochondrial targeted β-lapachone induces mitochondrial dysfunction and catastrophic vacuolization in cancer cells” (Bioorg Med Chem Lett, 2015):
Active and inactive are the calls of the source. The rule behind the calls is not given here.

Columns and labels:
[1] = tested on: A549; assay: Induction of apoptosis in human A549 cells assessed as early apoptotic cells by annexin-V/PI staining analysis (reference value: 1.1%); assay type: functional
[2] = tested on: A549; assay: Induction of apoptosis in human A549 cells assessed as viable cells by annexin-V/PI staining analysis (reference value: 97.6%); assay type: functional
[3] = tested on: A549; assay: Effect on oligomycin-induced inhibition of mitochondrial respiration in human A549 cells assessed as oxygen consumption rate by extracellular flux analyzer; assay type: functional, cell-based
[4] = tested on: A549; assay: Induction of apoptosis in human A549 cells assessed as late apoptotic cells by annexin-V/PI staining analysis (reference value: 1.0%); assay type: functional
[5] = tested on: A549; assay: Cytotoxicity against human A549 cells assessed as decrease in cell viability after 24 hrs by Celltiter-Blue assay; assay type: functional, cell-based
[6] = tested on: A549; assay: Induction of autophagy in human A549 cells assessed as increase in LC3-2 expression by western blot analysis; assay type: functional, cell-based
[7] = tested on: A549; assay: Cytotoxicity against human A549 cells assessed as vacuoles formation at 6 uM after 20 hrs by phase contrast microscopy; assay type: functional, cell-based
[8] = tested on: A549; assay: Induction of apoptosis in human A549 cells assessed as necrotic cells by annexin-V/PI staining analysis (reference value: 0.3%); assay type: functional
[9] = tested on: A549; assay: Cytotoxicity against human A549 cells assessed as decrease in cell viability at 10 uM for 4 hrs measured after 3 days by Celltiter-Blue assay; assay type: functional, cell-based
[10] = tested on: WM983B; assay: Cytotoxicity against human WM983B cells assessed as decrease in cell viability at 2 to 10 uM after 24 hrs by Celltiter-Blue assay; assay type: functional, cell-based
[11] = tested on: A549; assay: Effect on mitochondrial morphology in human A549 cells assessed as onion skin-like structures of mitochondria by electron microscopy; assay type: functional, cell-based
[12] = tested on: A549; assay: Induction of ROS generation in human A549 cells at 6 uM for 16 hrs by DCF dye based flow cytometry; assay type: functional, cell-based
[13] = tested on: PEO1; assay: Cytotoxicity against human PEO1 cells assessed as decrease in cell viability at 2 to 10 uM after 24 hrs by Celltiter-Blue assay; assay type: functional, cell-based
[14] = Cytotoxicity against human IMR90 cells assessed as slight decrease in cell viability at 10 uM for 4 hrs measured after 3 days by Celltiter-Blue assay; assay type: cell-based; details: imr-90, 10 µM
[15] = tested on: A549; assay: Induction of ROS generation in human A549 cells at 6 uM for 16 hrs by MitoSox dye based flow cytometry; assay type: functional, cell-based
[16] = tested on: A549; assay: Effect on mitochondrial morphology in human A549 cells assessed as vacuoles formation by electron microscopy; assay type: functional, cell-based
[17] = tested on: MDA-MB-231; assay: Cytotoxicity against human MDA-MB-231 cells assessed as decrease in cell viability at 2 to 10 uM after 24 hrs by Celltiter-Blue assay; assay type: functional, cell-based

| SMILES | Activity [1] [%] | Activity [2] [%] | Activity [3] | Activity [4] [%] | inhibition [5] | Activity [6] | Activity [7] | Activity [8] [%] | inhibition [9] | inhibition [10] | Activity [11] | Activity [12] | inhibition [13] | Activity [14] | Activity [15] | Activity [16] | inhibition [17] |
| --- | --- | --- | --- | --- | --- | --- | --- | --- | --- | --- | --- | --- | --- | --- | --- | --- | --- |
| CC1(C)OC2=C(CC1O)C(=O)C(=O)c1ccccc12 (stereo not given) | 4 | 89.2 | Active | 5.7 | Dose-dependent effect | inactive | inactive | 1.1 |  |  |  |  |  |  |  |  |  |
| CC(C)C[C@@H](/C=C/[C@H](Cc1ccccc1)C(=O)N1CCC[C@H]1C(=O)N[C@H](C(=O)N[C@@H](CCCNC(=O)OCc1ccccc1)C(=O)NCCC(=O)OC1CC2=C(OC1(C)C)c1ccccc1C(=O)C2=O)C(C)C)NC(=O)OC(C)(C)C (stereo not given in full) | 3.9 | 60.9 | inactive | 31.5 | Dose-dependent effect | Active | Active | 3.7 | Active | Active | Active | Active | Active | Toxic | Active | Active | Active |
